Measurements from paper PMC3536784, “Structural Characterization of Pandoraea pnomenusa B-356 Biphenyl Dioxygenase Reveals Features of Potent Polychlorinated Biphenyl-Degrading Enzymes” (PLoS ONE, 2013).

Columns and labels:
[1] = molecular target: T1, BPDOB356 (biphenyl dioxygenase, oxygenase component BphAE) (Comamonas testosteroni, UniProt Q46372); assay: O2 consumption, Clark-type oxygen electrode; format: biochemical; conditions: apparent; air-saturated 50 mM MES pH 6.0; NADH 123 µM; BphG B356 and BphF LB400 as electron transfer partners; Fe(II) added; partly uncoupled; read-out: 2,2′-Dichlorobiphenyl / Km /
T1 construct: gene bphA; heterologously produced, purified anaerobically; heterohexamer (alpha-beta)3; Rieske [2Fe-2S] and mononuclear Fe(II); 18 N-terminal alpha residues disordered; with Biphenyl dioxygenase subunit beta
T1 sequence (Q46372 whole entry): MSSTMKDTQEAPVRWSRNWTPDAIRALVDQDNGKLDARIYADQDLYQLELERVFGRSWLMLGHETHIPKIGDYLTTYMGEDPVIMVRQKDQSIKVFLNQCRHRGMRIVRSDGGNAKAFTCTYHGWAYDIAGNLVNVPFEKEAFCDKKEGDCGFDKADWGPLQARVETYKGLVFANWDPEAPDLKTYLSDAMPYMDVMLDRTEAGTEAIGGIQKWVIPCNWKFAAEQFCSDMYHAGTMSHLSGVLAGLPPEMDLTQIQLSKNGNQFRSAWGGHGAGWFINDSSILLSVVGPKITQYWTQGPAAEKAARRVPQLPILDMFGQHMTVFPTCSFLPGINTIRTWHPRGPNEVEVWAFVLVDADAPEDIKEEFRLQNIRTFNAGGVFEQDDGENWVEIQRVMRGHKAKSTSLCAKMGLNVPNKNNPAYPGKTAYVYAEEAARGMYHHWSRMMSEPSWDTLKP
T1 sequence (Q46373 whole entry partner): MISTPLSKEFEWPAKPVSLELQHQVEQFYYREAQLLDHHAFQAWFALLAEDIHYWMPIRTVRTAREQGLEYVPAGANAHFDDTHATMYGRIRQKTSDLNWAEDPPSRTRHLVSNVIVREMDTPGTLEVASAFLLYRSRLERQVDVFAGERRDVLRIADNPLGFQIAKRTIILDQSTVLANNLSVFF
Description: O2 consumption, Clark-type oxygen electrode on BPDOB356 (biphenyl dioxygenase, oxygenase component BphAE)

[2] = molecular target: T2, BPDOB356 (biphenyl dioxygenase, oxygenase component BphAE) (Comamonas testosteroni, UniProt Q46372, M231A); assay: O2 consumption, Clark-type oxygen electrode; conditions: read-out: 2,2′-Dichlorobiphenyl / Km /; apparent; air-saturated 50 mM MES pH 6.0; NADH 123 µM; BphG B356 and BphF LB400 as electron transfer partners; Fe(II) added; partly uncoupled
T2 construct: gene bphA
T2 sequence (Q46372 whole entry M231A): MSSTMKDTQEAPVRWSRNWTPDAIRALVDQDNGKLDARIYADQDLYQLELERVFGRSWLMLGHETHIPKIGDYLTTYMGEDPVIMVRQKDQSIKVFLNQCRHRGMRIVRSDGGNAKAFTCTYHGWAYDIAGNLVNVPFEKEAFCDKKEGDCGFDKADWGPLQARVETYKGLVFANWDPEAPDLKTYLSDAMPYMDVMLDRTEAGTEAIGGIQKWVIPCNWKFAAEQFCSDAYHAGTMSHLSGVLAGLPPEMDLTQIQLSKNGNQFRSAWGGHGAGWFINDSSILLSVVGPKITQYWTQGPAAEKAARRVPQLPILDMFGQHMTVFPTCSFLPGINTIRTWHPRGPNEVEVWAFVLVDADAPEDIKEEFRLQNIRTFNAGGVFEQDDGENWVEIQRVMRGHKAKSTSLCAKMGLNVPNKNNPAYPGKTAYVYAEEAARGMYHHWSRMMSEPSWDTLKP
T2 sequence (Q46373 whole entry partner): as the sequence (Q46373 whole entry partner) above

[3] = molecular target: T3, BPDOB356 (biphenyl dioxygenase, oxygenase component BphAE) (Comamonas testosteroni, UniProt Q46372, M231T); assay: O2 consumption, Clark-type oxygen electrode; conditions: read-out: 2,2′-Dichlorobiphenyl / Km /; apparent; air-saturated 50 mM MES pH 6.0; NADH 123 µM; BphG B356 and BphF LB400 as electron transfer partners; Fe(II) added; partly uncoupled
T3 construct: gene bphA
T3 sequence (Q46372 whole entry M231T): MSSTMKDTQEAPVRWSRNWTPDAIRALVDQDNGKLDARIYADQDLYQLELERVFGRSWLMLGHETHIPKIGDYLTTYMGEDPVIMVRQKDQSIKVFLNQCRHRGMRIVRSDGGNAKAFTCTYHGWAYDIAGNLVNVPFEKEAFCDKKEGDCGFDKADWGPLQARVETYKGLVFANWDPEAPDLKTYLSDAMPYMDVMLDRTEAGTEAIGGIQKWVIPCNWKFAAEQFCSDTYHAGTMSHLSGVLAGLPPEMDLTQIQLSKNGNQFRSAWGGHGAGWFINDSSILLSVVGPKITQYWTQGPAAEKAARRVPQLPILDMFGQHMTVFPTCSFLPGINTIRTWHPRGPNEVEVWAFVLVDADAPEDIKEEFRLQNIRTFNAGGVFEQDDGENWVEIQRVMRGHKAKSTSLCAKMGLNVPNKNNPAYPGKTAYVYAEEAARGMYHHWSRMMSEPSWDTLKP
T3 sequence (Q46373 whole entry partner): as the sequence (Q46373 whole entry partner) above

[4] = molecular target: T1, BPDOB356 (biphenyl dioxygenase, oxygenase component BphAE); assay: X-ray crystal structure of complex, […] Å; format: binding; conditions: biphenyl powder soaked into crystals 24 h, anaerobic; MES pH 6.0; alpha-subunit active site near Fe(II)

`Clc1ccccc1-c1ccccc1Cl` [2,2′-dichlorobiphenyl] showed a Km [1] of 1.1 µM, a Km [2] of 5.7 µM and a Km [3] of 6.4 µM.
For `c1ccc(-c2ccccc2)cc1` [biphenyl], the “X-ray crystal structure of complex, 1.6 Å” value [4] was 3GZY (BPDOB356) and 3GZX (BPDOB356•biphenyl complex).
